{
  "source": "patent US7632972B2",
  "about": "“Compounds and methods for treatment of cancer and modulation of programmed cell death for melanoma and other cancer cells” (The Board of Trustees of the University of Illionis, priority 2003, dated 2009)",
  "assay_type_in_all_cases": "cell-based, human",
  "key": {"[1]": {"tested_on": "SF-295", "test": "NCI 60 cell line screen (SRB), CNS Cancer", "source_text": "(§1) The operation of this screen utilizes 60 different human tumor cell lines, representing leukemia, melanoma and cancers of the lung, colon, brain, ovary, breast, prostate, and kidney. The aim is to prioritize for further evaluation, synthetic compounds or natural product samples showing selective growth inhibition or cell killing of particular tumor cell lines. This screen is unique in that the complexity of a 60 cell line dose response produced by a given compound results in a biological response pattern which can be utilized in pattern recognition algorithms. Using these algorithms, it is possible to assign a putative mechanism of action to a test compound, or to determine that the response pattern is unique and not similar to that of any of the standard prototype compounds included in the NCl database (see DTP Overview tab). In addition, following characterization of various cellular molecular targets in the 60 cell lines, it may be possible to select compounds most likely to interact with a specific molecular target.\n(§2) The human tumor cell lines of the cancer screening panel are grown in RPMI 1640 medium containing 5% fetal bovine serum and 2 mM L-glutamine. For a typical screening experiment, cells are inoculated into 96 well microtiter plates in 100 μL at plating densities ranging from 5,000 to 40,000 cells/well depending on the doubling time of individual cell lines. After cell inoculation, the microtiter plates are incubated at 37° C., 5% CO2, 95% air and 100% relative humidity for 24 h prior to addition of experimental drugs.\n(§3) After 24 h, two plates of each cell line are fixed in situ with TCA, to represent a measurement of the cell population for each cell line at the time of drug addition (Tz). Experimental drugs are solubilized in dimethyl sulfoxide at 400-fold the desired final maximum test concentration and stored frozen prior to use. At the time of drug addition, an aliquot of frozen concentrate is thawed and diluted to twice the desired final maximum test concentration with complete medium containing 50 μg/ml gentamicin. Additional four, 10-fold or ½ log serial dilutions are made to provide a total of five drug concentrations plus control. Aliquots of 100 μl of these different drug dilutions are added to the appropriate microtiter wells already containing 100 μl of medium, resulting in the required final drug concentrations.\n(§4) Following drug addition, the plates are incubated for an additional 48 h at 37° C., 5% CO2, 95% air, and 100% relative humidity. For adherent cells, the assay is terminated by the addition of cold TCA. Cells are fixed in situ by the gentle addition of 50 μl of cold 50% (w/v) TCA (final concentration, 10% TCA) and incubated for 60 minutes at 4° C. The supernatant is discarded, and the plates are washed five times with tap water and air dried. Sulforhodamine B (SRB) solution (100 μl) at 0.4% (w/v) in 1% acetic acid is added to each well, and plates are incubated for 10 minutes at room temperature. After staining, unbound dye is removed by washing five times with 1% acetic acid and the plates are air dried. Bound stain is subsequently solubilized with 10 mM trizma base, and the absorbance is read on an automated plate reader at a wavelength of 515 nm. For suspension cells, the methodology is the same except that the assay is terminated by fixing settled cells at the bottom of the wells by gently adding 50 μl of 80% TCA (final concentration, 16% TCA). Using the seven absorbance measurements [time zero, (Tz), control growth, (C), and test growth in the presence of drug at the five concentration levels (Ti)], the percentage growth is calculated at each of the drug concentrations levels. Percentage growth inhibition is calculated as: [(Ti−Tz)/(C−Tz)]×100 for concentrations for which Ti>/=Tz [(Ti−Tz)/Tz]×100 for concentrations for which Ti<Tz.\n(§5) Three dose response parameters are calculated for each experimental agent. […]"}, "[2]": {"tested_on": "U251", "test": "NCI 60 cell line screen (SRB), CNS Cancer", "source_text": "as §1, §2, §3, §4, §5"}, "[3]": {"tested_on": "SNB-19", "test": "NCI 60 cell line screen (SRB), CNS Cancer", "source_text": "as §1, §2, §3, §4, §5"}, "[4]": {"tested_on": "SF-268", "test": "NCI 60 cell line screen (SRB), CNS Cancer", "source_text": "as §1, §2, §3, §4, §5"}, "[5]": {"tested_on": "SNB-75", "test": "NCI 60 cell line screen (SRB), CNS Cancer", "source_text": "as §1, §2, §3, §4, §5"}, "[6]": {"tested_on": "PC-3", "test": "NCI 60 cell line screen (SRB), Prostate Cancer", "source_text": "as §1, §2, §3, §4, §5"}, "[7]": {"tested_on": "DU-145", "test": "NCI 60 cell line screen (SRB), Prostate Cancer", "source_text": "as §1, §2, §3, §4, §5"}},
  "data": [
    {"molecule": "COc1cccc(CCNC(=O)CC(c2ccccc2)(c2ccccc2)c2ccccc2)c1", "note": "[Compound Z3]", "values": [
      {"measurement": "GI50", "setting": "[1]; SF-295", "result": 4.36, "unit": "µM"},
      {"measurement": "TGI", "setting": "[1]; SF-295", "result": ">1.00E−04"},
      {"measurement": "Percent Growth", "setting": "[1]; SF-295, Log10 Concentration −4.0", "result": 15, "unit": "%"},
      {"measurement": "Percent Growth", "setting": "[1]; SF-295, Log10 Concentration −5.0", "result": 27, "unit": "%"},
      {"measurement": "Percent Growth", "setting": "[1]; SF-295, Log10 Concentration −6.0", "result": 91, "unit": "%"},
      {"measurement": "Percent Growth", "setting": "[1]; SF-295, Log10 Concentration −7.0", "result": 113, "unit": "%"},
      {"measurement": "Percent Growth", "setting": "[1]; SF-295, Log10 Concentration −8.0", "result": 100, "unit": "%"},
      {"measurement": "CC50", "setting": "[1]; SF-295, read-out: LC50 (the source's name)", "result": "> 100", "unit": "µM"},
      {"measurement": "GI50", "setting": "[2]; U251", "result": 4.85, "unit": "µM"},
      {"measurement": "TGI", "setting": "[2]; U251", "result": "5.56E−05"},
      {"measurement": "Percent Growth", "setting": "[2]; U251, Log10 Concentration −4.0", "result": "−10", "unit": "%"},
      {"measurement": "Percent Growth", "setting": "[2]; U251, Log10 Concentration −5.0", "result": 29, "unit": "%"},
      {"measurement": "Percent Growth", "setting": "[2]; U251, Log10 Concentration −6.0", "result": 96, "unit": "%"},
      {"measurement": "Percent Growth", "setting": "[2]; U251, Log10 Concentration −7.0", "result": 107, "unit": "%"},
      {"measurement": "Percent Growth", "setting": "[2]; U251, Log10 Concentration −8.0", "result": 99, "unit": "%"},
      {"measurement": "CC50", "setting": "[2]; U251, read-out: LC50 (the source's name)", "result": "> 100", "unit": "µM"},
      {"measurement": "GI50", "setting": "[3]; SNB-19", "result": 90.1, "unit": "µM"},
      {"measurement": "TGI", "setting": "[3]; SNB-19", "result": ">1.00E−04"},
      {"measurement": "Percent Growth", "setting": "[3]; SNB-19, Log10 Concentration −4.0", "result": 48, "unit": "%"},
      {"measurement": "Percent Growth", "setting": "[3]; SNB-19, Log10 Concentration −5.0", "result": 92, "unit": "%"},
      {"measurement": "Percent Growth", "setting": "[3]; SNB-19, Log10 Concentration −6.0", "result": 92, "unit": "%"},
      {"measurement": "Percent Growth", "setting": "[3]; SNB-19, Log10 Concentration −7.0", "result": 107, "unit": "%"},
      {"measurement": "Percent Growth", "setting": "[3]; SNB-19, Log10 Concentration −8.0", "result": 97, "unit": "%"},
      {"measurement": "CC50", "setting": "[3]; SNB-19, read-out: LC50 (the source's name)", "result": "> 100", "unit": "µM"},
      {"measurement": "GI50", "setting": "[4]; SF-268", "result": 15, "unit": "µM"},
      {"measurement": "TGI", "setting": "[4]; SF-268", "result": ">1.00E−04"},
      {"measurement": "Percent Growth", "setting": "[4]; SF-268, Log10 Concentration −4.0", "result": 38, "unit": "%"},
      {"measurement": "Percent Growth", "setting": "[4]; SF-268, Log10 Concentration −5.0", "result": 53, "unit": "%"},
      {"measurement": "Percent Growth", "setting": "[4]; SF-268, Log10 Concentration −6.0", "result": 87, "unit": "%"},
      {"measurement": "Percent Growth", "setting": "[4]; SF-268, Log10 Concentration −7.0", "result": 97, "unit": "%"},
      {"measurement": "Percent Growth", "setting": "[4]; SF-268, Log10 Concentration −8.0", "result": 90, "unit": "%"},
      {"measurement": "CC50", "setting": "[4]; SF-268, read-out: LC50 (the source's name)", "result": "> 100", "unit": "µM"},
      {"measurement": "GI50", "setting": "[5]; SNB-75", "result": "> 100", "unit": "µM"},
      {"measurement": "TGI", "setting": "[5]; SNB-75", "result": ">1.00E−04"},
      {"measurement": "Percent Growth", "setting": "[5]; SNB-75, Log10 Concentration −4.0", "result": 96, "unit": "%"},
      {"measurement": "Percent Growth", "setting": "[5]; SNB-75, Log10 Concentration −5.0", "result": 118, "unit": "%"},
      {"measurement": "Percent Growth", "setting": "[5]; SNB-75, Log10 Concentration −6.0", "result": 113, "unit": "%"},
      {"measurement": "Percent Growth", "setting": "[5]; SNB-75, Log10 Concentration −7.0", "result": 117, "unit": "%"},
      {"measurement": "Percent Growth", "setting": "[5]; SNB-75, Log10 Concentration −8.0", "result": 94, "unit": "%"},
      {"measurement": "CC50", "setting": "[5]; SNB-75, read-out: LC50 (the source's name)", "result": "> 100", "unit": "µM"},
      {"measurement": "GI50", "setting": "[6]; PC-3", "result": 6.12, "unit": "µM"},
      {"measurement": "TGI", "setting": "[6]; PC-3", "result": ">1.00E−04"},
      {"measurement": "Percent Growth", "setting": "[6]; PC-3, Log10 Concentration −4.0", "result": 12, "unit": "%"},
      {"measurement": "Percent Growth", "setting": "[6]; PC-3, Log10 Concentration −5.0", "result": 39, "unit": "%"},
      {"measurement": "Percent Growth", "setting": "[6]; PC-3, Log10 Concentration −6.0", "result": 90, "unit": "%"},
      {"measurement": "Percent Growth", "setting": "[6]; PC-3, Log10 Concentration −7.0", "result": 96, "unit": "%"},
      {"measurement": "Percent Growth", "setting": "[6]; PC-3, Log10 Concentration −8.0", "result": 100, "unit": "%"},
      {"measurement": "CC50", "setting": "[6]; PC-3, read-out: LC50 (the source's name)", "result": "> 100", "unit": "µM"},
      {"measurement": "GI50", "setting": "[7]; DU-145", "result": 26.8, "unit": "µM"},
      {"measurement": "TGI", "setting": "[7]; DU-145", "result": ">1.00E−04"},
      {"measurement": "Percent Growth", "setting": "[7]; DU-145, Log10 Concentration −4.0", "result": 31, "unit": "%"},
      {"measurement": "Percent Growth", "setting": "[7]; DU-145, Log10 Concentration −5.0", "result": 64, "unit": "%"},
      {"measurement": "Percent Growth", "setting": "[7]; DU-145, Log10 Concentration −6.0", "result": 88, "unit": "%"},
      {"measurement": "Percent Growth", "setting": "[7]; DU-145, Log10 Concentration −7.0", "result": 93, "unit": "%"},
      {"measurement": "Percent Growth", "setting": "[7]; DU-145, Log10 Concentration −8.0", "result": 88, "unit": "%"},
      {"measurement": "CC50", "setting": "[7]; DU-145, read-out: LC50 (the source's name)", "result": "> 100", "unit": "µM"}
    ]}
  ]
}
